According to patent publication US10730883B2 (AbbVie Inc., priority 2015, dated 2020):
≈ marks a conversion by molar mass, not a printed value. Read-outs that look alike come from different tables or passages of the source.

Columns and labels:
[1] = Solid state accelerated stability study; type: physicochemical; conditions: for Growth of degradation products: open and closed glass vials
Method: Samples (approximately 1 mg to 2 mg) of the solid state form were weighed into glass vials and tested as described below.

[2] = Solubility of solid state forms; type: physicochemical; conditions: Amorphous Freebase: relative to the corresponding crystalline forms
[3] = Hygroscopicity / moisture sorption isotherm of solid state forms; type: physicochemical
Source text: FIG. 6A is a moisture sorption isotherm corresponding to the Amorphous Freebase (via dehydration).
FIG. 6C is a moisture sorption isotherm corresponding to the Tartrate Hydrate.
FIG. 6D is a moisture sorption isotherm corresponding to the Freebase Anhydrate Form D.
In one embodiment, the Tartrate Hydrate has a moisture sorption isotherm profile showing a weight gain of about 1% to about 2% when relative humidity is increased from about 10% relative humidity to about 90% relative humidity at a temperature of 25° C.

[4] = Moisture sorption isotherm; type: physicochemical; conditions: 90% relative humidity at 25° C.
Method: Moisture vapor isotherm data were collected with a DVS Advantage (Surface Measurement Systems Ltd, Alperton, United Kingdom). The sample powder (5 mg to 20 mg) was loaded on a tared pan of the DVS Advantage. The moisture sorption isotherm data were collected from 30-0-90-0-30% relative humidity in 10% relative humidity intervals. For each step, the dm/dt criteria was 0.001% over 5 minutes, a minimum dm/dt time of 30 minutes, and a maximum dm/dt of 120 minutes. Data was collected isothermally at 25° C. with a nitrogen flow rate of 200 cm^3/minute. The post DVS sample was kept at approximately 30% relative humidity before PXRD analysis.

[5] = Bioavailability of solid state forms; type: in vivo; conditions: relative to the corresponding crystalline forms
Equilibrium solubility = type: physicochemical
Method: After equilibration, the mixtures were inspected to assure that the amount of excess solid was sufficient to permit re-characterization. […] The pH of aqueous suspensions was determined after equilibration. The solid phase was separated from the liquid phase by centrifugation at 3300 rpm at equilibration temperatures (i.e., 25° C. or 37° C.). The supernatant was then filtered (13 mm Acrodisc® syringe filter with 0.45μ GHP membrane, Pall® Life Sciences, Ann Arbor, Mich.) to discard the initial 2 mL (to saturate filter) and capture the last 1 mL for analysis. The filtrate was diluted as needed for quantification of the material studied by HPLC method (as detailed elsewhere herein). The physical form of the recovered solid was characterized by powder X-ray diffraction to examine whether or not phase change had occurred

[6] = Chemical stability of solid state forms in closed vials at controlled temperature and relative humidity; type: physicochemical
Method: (§1) The Amorphous Freebase, however, is hygroscopic and can comprise as much as 12% by weight water at 25° C./90% relative humidity. Environmental controls potentially are required to ensure appropriate control of potency and water content during storage, dispensing, and handling of the Amorphous Freebase.
(§2) The Tartrate Hydrate, however, potentially will convert to an amorphous tartrate below 10% relative humidity, when heated, or when compressed or under shear.

[7] = Stability of solid state forms to light and peroxide; type: physicochemical
Method: as §1, §2

[8] = system: subjects with mild to moderate RA; test: Study 2-Part 2: safety and tolerability, subjects with RA; type: in vivo, human
Method: (§3) Subjects received study drug for 26 consecutive days (Study Days 3 through 28) and a single morning dose of study drug on Study Day 29. […] Subjects were confined to the study site for a total of 10 days—from Day 1 to Day 4 and from Day 27 to Day 31.
Safety was evaluated based on assessments of adverse events, vital signs, physical examination, laboratory metrics, and 12-lead electrocardiogram (ECG). All subjects who received at least one dose of study drug were included in the safety analyses. Subjects who were administered placebo were pooled into a single group within each study or study part. Laboratory test values and vital signs measurements that were above or below the reference range were identified. Subjects were followed-up for a total of 7 days in Study 1, 35 days in Study 2-Part 1, and 57 days in Study 2-Part 2. […] In subjects with RA, the severity of adverse events were rated by the investigator as mild (transient and easily tolerated by the subject), moderate (causes subject discomfort and interrupts the subject's usual activities), or severe (causes considerable interference with the subject's usual activities and may be incapacitating or life-threatening).

[9] = Study 2-Part 1: multiple-dose escalation PK in healthy subjects
Method: (§4) Both evaluations followed randomized, double-blind, placebo-controlled designs. Part 1 was conducted at PPD Development (Austin, Tex.) and Part 2 was conducted at two sites: Aspen Clinical Research (Orem, Utah) and Altoona Center for Clinical Research (Duncansville, Pa.). Study protocol and informed consents were approved by RCRC IRB (Austin, Tex.) and Quorum Review IRB (Seattle, Wash.).
(§5) Study drug was administered approximately 30 minutes after a standard breakfast (in the morning) or a snack (in the evening). […] Subjects were confined to the study site and supervised for approximately 18 days.
(§6) Samples quantified below the LLOQ were reported as zero.
(§7) Renal clearance (CLr) was calculated as Au,0-12/AUC0-12 at steady state.
(§8) Statistical analyses were performed using SAS software (Version 9.3; SAS institute Inc., Cary, N.C., USA).

clinical [10] = conditions: human, oral; for AUC(0-t) / half-life: plasma; for CL renal: urine and plasma
Method: as §4, §5, §6, §7, §8

clinical [11] = conditions: human, plasma, oral, 48 mg
Method: (§9) Study 1 was designed as a single-site, randomized, double-blind, placebo-controlled study. […] Study drug was administered following at least 10 hours of fasting. […] Subjects were confined to the study site and supervised for approximately 8 consecutive days.
as §6, §7, §8

healthy subjects [12] = test: Study 1: safety and tolerability, single doses, healthy subjects
Method: as §9
Safety was evaluated based on assessments of adverse events, vital signs, physical examination, laboratory metrics, and 12-lead electrocardiogram (ECG). All subjects who received at least one dose of study drug were included in the safety analyses. Subjects who were administered placebo were pooled into a single group within each study or study part. Laboratory test values and vital signs measurements that were above or below the reference range were identified. Subjects were followed-up for a total of 7 days in Study 1, 35 days in Study 2-Part 1, and 57 days in Study 2-Part 2.

healthy subjects [13] = test: Study 2-Part 1: safety and tolerability, multiple doses, healthy subjects; type: in vivo, human
Method: as §5
Safety was evaluated based on assessments of adverse events, vital signs, physical examination, laboratory metrics, and 12-lead electrocardiogram (ECG). All subjects who received at least one dose of study drug were included in the safety analyses. Subjects who were administered placebo were pooled into a single group within each study or study part. Laboratory test values and vital signs measurements that were above or below the reference range were identified. […] In subjects with RA, the severity of adverse events were rated by the investigator as mild (transient and easily tolerated by the subject), moderate (causes subject discomfort and interrupts the subject's usual activities), or severe (causes considerable interference with the subject's usual activities and may be incapacitating or life-threatening).

[14] = Pharmacokinetic interaction of Compound 1 and methotrexate (dose-normalized AUC); type: in vivo, human; conditions: FIG. 35A
[15] = Study 1: single-dose escalation PK in healthy subjects
Method: as §9, §6, §7, §8

clinical [16] = conditions: human, oral; for half-life: plasma; for CL renal: urine and plasma, CLr
Method: Both evaluations followed randomized, double-blind, placebo-controlled designs. Part 1 was conducted at PPD Development (Austin, Tex.) and Part 2 was conducted at two sites: Aspen Clinical Research (Orem, Utah) and Altoona Center for Clinical Research (Duncansville, Pa.).
as §3, §6, §7

[17] = general statement on the solid state form
[18] = 6 mg BID, Day 14, healthy subjects
[19] = 12 mg BID, Day 14, healthy subjects
[20] = 24 mg BID, Day 14, healthy subjects
[21] = multiple twice-daily doses 3 mg
[22] = multiple twice-daily doses 6 mg
[23] = multiple twice-daily doses 12 mg
[24] = multiple twice-daily doses 24 mg
[25] = multiple twice-daily doses, Total Compound 1
[26] = single 48 mg dose, healthy subjects
[27] = on average across all dose groups

Structure (SMILES): CC[C@@H]1CN(C(=O)NCC(F)(F)F)C[C@@H]1c1cnc2cnc3[nH]ccc3n12 [Amorphous Freebase, (3S,4R)-3-ethyl-4-(3H-imidazo[1,2-a]pyrrolo[2,3-e]pyrazin-8-yl)-N-(2,2,2-trifluoroethyl)pyrrolidine-1-carboxamide]
- Growth of degradation products ([1]; 40° C./75% relative humidity, up to 24 weeks): no growth of degradation products
- Growth of degradation products ([1]; 50° C./75% relative humidity, up to six weeks): no growth of degradation products
- chemical stability ([1]; solid state accelerated stability study): acceptable
- Change in attributes evaluated (description, crystal form, assay, impurities and water content) ([1]; storage conditions of the accelerated stability study): No material change
- Solubility [2]: greater solubility
- water content (hygroscopicity) ([3]; 25° C./90% relative humidity): ≤ 12 % by weight
- hygroscopicity [3, 17]: hygroscopic
- Moisture sorption (reversibly sorbs up to) [4]: up to 13%
- bioavailability [5]: increased bioavailability
- Solubility (Equilibrium solubility; FasSIF (pH 6.5 at 37° C.)): 1.14 mg/mL (≈ 3 mM)
- Solubility (Equilibrium solubility; FedSIF (pH 5.0 at 37° C.)): 2.13 mg/mL (≈ 5.6 mM)
- Solubility (Equilibrium solubility; pH 1 at 25° C.): >3.5 mg/mL
- Solubility (Equilibrium solubility; pH 7.4 at 25° C.): 0.68 mg/mL (≈ 1.79 mM)
- degradation observed in closed vials ([6]; closed vials, 30° C./65% relative humidity and 40° C./75% relative humidity over 12 weeks, 50° C./75% relative humidity over 6 weeks): no degradation
- chemical stability [6, 17]: acceptable chemical stability
- stability to light and peroxide [7]: acceptable stability

Structure (SMILES): CC[C@@H]1CN(C(=O)NCC(F)(F)F)C[C@@H]1c1cnc2cnc3[nH]ccc3n12 [Compound 1, (3S,4R)-3-ethyl-4-(3H-imidazo[1,2-a]pyrrolo[2,3-e]pyrazin-8-yl)-N-(2,2,2-trifluoroethyl)pyrrolidine-1-carboxamide]
- subjects with at least one TEAE ([8]; Compound 1 dose groups (total of 11 subjects with RA)): Five subjects
- number of TEAEs reported ([8]; Compound 1 dose groups, subjects with RA): 7
- Ctrough ([9]; 3 mg BID, Day 14, healthy subjects): 1.46 ± 0.50 ng/mL
- CL/F [9, 18]: 43.9 ± 5.4 L/h
- Ctrough [9, 18]: 2.29 ± 0.41 ng/mL
- CL/F [9, 19]: 45.5 ± 8.04 L/h
- Ctrough [9, 19]: 4.54 ± 1.55 ng/mL
- CL/F [9, 20]: 46.1 ± 6.44 L/h
- Ctrough [9, 20]: 9.50 ± 2.57 ng/mL
- t1/2F (functional half-life) ([9]; 24 mg BID, Day 14, healthy subjects, harmonic mean ± pseudo-SD): 3.3 ± 0.4 h
- functional half-life ([9]; estimated from Cmax to Ctrough ratio at steady-state, healthy volunteers): approximately 3 hours
- pre-dose concentrations on Study Day 13 lower compared with Study Day 5 ([9]; multiple dosing, healthy volunteers): 13%
- AUC(0-t) (clinical [10]; 3 mg): 78.3 ± 20.3 ng·h/mL
- half-life (clinical [10]; 3 mg): 192 ± 24 min
- AUC(0-t) (clinical [10]; 6 mg): 138 ± 16.7 ng·h/mL
- half-life (clinical [10]; 6 mg): 198 ± 18 min
- half-life (clinical [10]; 12 mg): 192 ± 30 min
- CL renal (clinical [10]; 3 mg): 125 mL/min
- CL renal (clinical [10]; 12 mg): 162 mL/min
- AUC(0-inf) (clinical [11]): 1040 ± 174 ng·h/mL
- AUC(0-t) (clinical [11]): 1030 ± 174 ng·h/mL
- Headache, subjects (healthy subjects [12]; single dose 48 ng): 2 (33.3%)
- Presyncope, subjects (healthy subjects [12]; single dose 48 ng): 0
- Headache, subjects (healthy subjects [12]; single dose 1 mg): 0
- Presyncope, subjects (healthy subjects [12]; single dose 1 mg): 0
- Headache, subjects (healthy subjects [12]; single dose 3 mg): 0
- Presyncope, subjects (healthy subjects [12]; single dose 3 mg): 0
- Headache, subjects (healthy subjects [12]; single dose 6 mg): 0
- Presyncope, subjects (healthy subjects [12]; single dose 6 mg): 1 (16.7%)
- Headache, subjects (healthy subjects [12]; single dose 12 mg): 0
- Presyncope, subjects (healthy subjects [12]; single dose 12 mg): 0
- Headache, subjects (healthy subjects [12]; single dose 24 mg): 0
- Presyncope, subjects (healthy subjects [12]; single dose 24 mg): 1 (16.7%)
- Headache, subjects (healthy subjects [12]; single dose 36 mg): 0
- Presyncope, subjects (healthy subjects [12]; single dose 36 mg): 0
- Tolerability (healthy subjects [12]; single doses up to 48 mg and multiple twice daily doses up to 24 mg, immediate-release formulation): well-tolerated
- dose-limiting toxicities or safety concerns (healthy subjects [12]; single doses up to 48 mg or multiple doses up to 24 mg twice daily): no dose-limiting toxicities or safety concerns
- Presyncope, subjects (healthy subjects [12]; single doses, Total Compound 1): 2 (4.8%)
- Severity of TEAEs (healthy subjects [12]; single doses, healthy subjects): mild
- maximum tolerated dose (healthy subjects [12]; single or multiple dose studies): not reached
- Abdominal Discomfort, subjects (healthy subjects [13]; [21]): 0
- Abdominal Pain, subjects (healthy subjects [13]; [21]): 0
- Diarrhoea, subjects (healthy subjects [13]; [21]): 0
- Headache, subjects (healthy subjects [13]; [21]): 0
- Nasopharyngitis, subjects (healthy subjects [13]; [21]): 1 (12.5%)
- Abdominal Discomfort, subjects (healthy subjects [13]; [22]): 0
- Abdominal Pain, subjects (healthy subjects [13]; [22]): 1 (12.5%)
- Diarrhoea, subjects (healthy subjects [13]; [22]): 1 (12.5%)
- Headache, subjects (healthy subjects [13]; [22]): 2 (25.0%)
- Nasopharyngitis, subjects (healthy subjects [13]; [22]): 1 (12.5%)
- Abdominal Discomfort, subjects (healthy subjects [13]; [23]): 0
- Abdominal Pain, subjects (healthy subjects [13]; [23]): 0
- Diarrhoea, subjects (healthy subjects [13]; [23]): 1 (12.5%)
- Headache, subjects (healthy subjects [13]; [23]): 2 (25.0%)
- Nasopharyngitis, subjects (healthy subjects [13]; [23]): 0
- Abdominal Discomfort, subjects (healthy subjects [13]; [24]): 0
- Abdominal Pain, subjects (healthy subjects [13]; [24]): 1 (12.5%)
- Diarrhoea, subjects (healthy subjects [13]; [24]): 0
- Headache, subjects (healthy subjects [13]; [24]): 1 (12.5%)
- Nasopharyngitis, subjects (healthy subjects [13]; [24]): 0
- Abdominal Discomfort, subjects (healthy subjects [13]; [25]): 0
- Abdominal Pain, subjects (healthy subjects [13]; [25]): 2 (6.3%)
- Diarrhoea, subjects (healthy subjects [13]; [25]): 2 (6.3%)
- Headache, subjects (healthy subjects [13]; [25]): 5 (15.6%)
- Nasopharyngitis, subjects (healthy subjects [13]; [25]): 2 (6.3%)
- changes in hematologic parameters (healthy subjects [13]; multiple-dose administration in healthy subjects for 14 days): no clinically significant changes
- effect of concomitant methotrexate administration on Compound 1 dose-normalized AUC [14]: lack of effect
- CL/F [15, 26]: 47.6 ± 8.97 L/h
- dose-normalized AUC∞ lower than that following 3 mg dose [15, 26]: 40%
- Dose proportionality of exposures ([15]; single dose range of 3 to 36 mg and multiple dose range of 3 mg to 24 mg BID): dose proportional
- Ctrough (6 mg BID, Day 28, subjects with RA): 5.81 ng/mL
- AUC0-12 (12 mg BID, Day 28, subjects with RA): 334 ng·h/mL
- Ctrough (12 mg BID, Day 29, subjects with RA): 6.44 ng/mL
- Ctrough (24 mg BID, Day 28, subjects with RA): 15.3 ng/mL
- Ctrough (24 mg BID, Day 29, subjects with RA): 14.9 ng/mL
- apparent oral clearance lower in subjects with RA compared to healthy subjects [27]: 23%
- higher exposure in subjects with RA than in healthy subjects [27]: approximately 30%
- half-life (clinical [16]; 6 mg, t1/2F (functional half-life), 6 mg BID, Day 29, subjects with RA, harmonic mean): 210 min
- half-life (clinical [16]; 12 mg, t1/2F (functional half-life), 12 mg BID, Day 29, subjects with RA, harmonic mean): 222 min
- half-life (clinical [16]; 24 mg, t1/2F (functional half-life), 24 mg BID, Day 29, subjects with RA, harmonic mean): 216 min
- half-life (clinical [16]; functional half-life, subjects with RA on stable doses of methotrexate): ~240 min
- CL renal (clinical [16]; 6 mg, 6 mg BID, Day 28, subjects with RA): 116 mL/min
- CL renal (clinical [16]; 6 mg, 6 mg BID, Day 29, subjects with RA): 82.2 mL/min
- CL renal (clinical [16]; 12 mg, 12 mg BID, Day 28, subjects with RA): 104 mL/min
- CL renal (clinical [16]; 12 mg, 12 mg BID, Day 29, subjects with RA): 82.7 mL/min
- CL renal (clinical [16]; 24 mg, 24 mg BID, Day 28, subjects with RA): 105 mL/min
